Test results published in publication PMC8286836, “Identifying SARS-CoV-2 antiviral compounds by screening for small molecule inhibitors of Nsp5 main protease” (Biochemical Journal, 2021).
“And” between values parts separate entries of the source, which are not always exact repeats. Identical values can stand only once. “Also recorded” adds a separate entry of the source. Like-named read-outs stand apart in the source and are kept apart here. Where a SMILES comes first, the peptide text is derived from it. [ ]: non-standard residue; d: D form. The star is where a group is joined. Nle = CCCC[C@H](N)C(=O)O; Cbz = O=C(OCc1ccccc1)*; CH2F = FC*

Tests used:
nsp5 [1] = molecular target: T1, nsp5 (Severe acute respiratory syndrome coronavirus 2, UniProt P0DTD1); test: biochemical; assay type: biochemical; conditions: for inhibition of nsp5 in FRET-based assay: drug concentrations 0 to 500 µM; for inhibition of nsp5 in presence of reducing agent: DTT or GSH; for inhibition of nsp5 in absence of reducing agent: no reducing agent
nsp5 [2] = molecular target: T1, nsp5; test: Gel based nsp9 cleavage assay; assay type: biochemical; conditions: 1 µM nsp5, drug 10-500 µM
mice = conditions: cited from earlier work
SARS-CoV-2 = test: viral infectivity assay in Vero E6 cells; assay type: cell-based; conditions: for EC50: read-out: EC50 viral infection
rhesus macaques = test system: rhesus macaques; parameters: method as in PMID 29553486; conditions: trials investigating AIDS disease progression; cited from earlier work
thrombin = thrombin (Homo sapiens, UniProt P00734); test: thrombin FRET protease assay (specificity); assay type: biochemical; conditions: for inhibition of thrombin activity (words): same buffer as in the HTS
Text: Calpain Inhibitor I and Z-DEVD-FMK were described recently as nsp5 inhibitors in vitro [21, 25]. To test the specificity of the final five drugs we tested them against a different protease, thrombin. We used the same buffer as in the HTS, which contained a non-ionic detergent, which reduces the likelihood of unspecific inhibition via colloidal aggregation. […] Lastly, we tested whether these compounds could inhibit the other viral coronavirus protease (nsp3 PLpro), which is also a cysteine protease. The substrate and assay conditions used in this experiment as well as example inhibitor compounds of PLpro are described elsewhere (see [28]).
The peptides were analysed by LC–MS on an Agilent 1100 LC-MSD.

[3] = FRET-based assay, 10 nM nsp5, 20 µM substrate, 2 mM DTT, mean ± SEM, read-out: IC50
[4] = Severe acute respiratory syndrome coronavirus 2, Vero C1008, Vero E6 cells, MOI 0.5 PFU/cell, mean ± SEM

Compound | inhibition of nsp5 in FRET-based assay (nsp5 [1]) | IC50 (nsp5 [1]; [3]) [nM] | Hill coefficient (nH) (nsp5 [1]; FRET-based assay, mean ± SEM) | inhibition of nsp5 in nsp9 gel-based cleavage assay (words) (nsp5 [2]) | also measured
CCOc1ccc(Cc2cc([C@@H]3O[C@H](SC)[C@@H](O)[C@H](O)[C@H]3O)ccc2Cl)cc1 [Sotagliflozin (LX4211), Sotagliflozin] | Did not inhibit |  |  |  | 
CCCC[C@@H](C=O)NC(=O)[C@H](CC(C)C)NC(=O)[C@H](CC(C)C)NC(C)=O [Calpain Inhibitor I, (2S)-2-(acetylamino)-N-[(1S)-1-({[(1S)-1-formylpentyl]amino}carbonyl)-3-methylbutyl]-4-methylpentanamide] (Ac-Leu-Leu-[Nle]-aldehyde) |  | 5170 ± 170 | -2.0 ± 0.1 | inhibited nsp5 | inhibition of nsp5 in presence of reducing agent (nsp5 [1]; FRET-based assay): inhibited nsp5 in the absence of reducing agent as well as the presence of either reducing agent; IC50 (nsp5 [1]; FRET-based assay, Reducing agent: DTT, read-out: IC50): 2800 ± 200 nM; IC50 (nsp5 [1]; FRET-based assay, Reducing agent: GSH, read-out: IC50): 2300 ± 200 nM; IC50 (nsp5 [1]; FRET-based assay, Reducing agent: None, read-out: IC50): 2400 ± 100 nM; inhibition of nsp5 in absence of reducing agent (nsp5 [1]; FRET-based assay): inhibited nsp5 in the absence of reducing agent; toxic effects in mice (mice): without obvious toxic effects; EC50 (SARS-CoV-2; [4]): 280 ± 10 nM
COC(=O)CC(NC(=O)C(CC(C)C)NC(=O)C(NC(=O)C(C)NC(=O)C(CO)NC(=O)OCc1ccccc1)C(C)C)C(=O)CF (stereo not shown) [Z-SAVLD-FMK] (Cbz-SAVLD(OMe)-CH2F; configuration not given here) |  | 20 ± 1 |  |  | 
COc1cc2ncc(-c3ccccc3)nc2cc1OC [Tyrphostin AG 1296] | did not inhibit in either validation step |  |  | did not inhibit in either validation step | 
COC(=O)CCC(NC(=O)C(CC(=O)OC)NC(=O)OCc1ccccc1)C(=O)NC(C(=O)NC(CC(=O)OC)C(=O)CF)C(C)C (stereo not shown) [Z-DEVD-FMK] |  |  | -0.7 ± 0.05 | inhibited nsp5 | IC50 (nsp5 [1]): 230 ± 30 nM
O=c1c2ccccc2[se]n1-c1ccccc1 [Ebselen] |  |  |  |  | inhibition of nsp5 in presence of reducing agent (nsp5 [1]; FRET-based assay): only a slight reduction in nsp5 activity; inhibition of nsp5 in absence of reducing agent (nsp5 [1]; FRET-based assay): inhibited nsp5 only in the absence of a reducing agent
CN1CCN(c2c(F)cc3c(=O)c(C(=O)O)cn4c3c2OCN4C)CC1 [Marbofloxacin] | Did not inhibit |  |  |  | 
CCC(C)C(NC(=O)OCc1ccccc1)C(=O)NC(CCC(=O)OC)C(=O)NC(C(=O)NC(CC(=O)OC)C(=O)CF)C(C)O (stereo not shown) [Z-IETD-FMK] (Cbz-IE(OMe)TD(OMe)-CH2F; configuration not given here) |  | 230 ± 10 | -1.4 ± 0.08 | inhibited nsp5 | 
COC(=O)CC(NC(=O)C(CC(C)C)NC(=O)C(NC(=O)C(C)NC(=O)C(CO)NC(=O)C(C)NC(=O)OCc1ccccc1)C(C)C)C(=O)CF (stereo not shown) [Z-ASAVLD-FMK] (Cbz-ASAVLD(OMe)-CH2F; configuration not given here) |  | 260 ± 20 |  |  | 
PDK1/Akt/Flt Dual Pathway Inhibitor | showed some inhibition of nsp5 | 26300 | -0.3 ± 0.02 | Did not inhibit | inhibition of nsp5 in nsp9 gel-based cleavage assay (words) (nsp5 [2]; listed as PDK1/Akt/Flt Dual pathway): did not show inhibition at any of the drug concentrations
Q-IETD-OPh |  |  |  | showed the best nsp5 inhibition | 
COC(=O)CC(NC(=O)C(CC(C)C)NC(=O)C(NC(=O)C(C)NC(=O)OCc1ccccc1)C(C)C)C(=O)CF (stereo not shown) [Z-AVLD-FMK] (Cbz-AVLD(OMe)-CH2F; configuration not given here) |  |  |  |  | IC50 (nsp5 [1]; FRET-based assay, custom FMK peptides, mean ± SEM, read-out: IC50): < 1 nM and 0.8 nM; EC50 (SARS-CoV-2; Severe acute respiratory syndrome coronavirus 2, Vero C1008): 66000 ± 7280 nM; increase in inhibitor potency (EC50) compared with Z-VAD-FMK (SARS-CoV-2; Vero E6 cells): 2 fold; EC50 (SARS-CoV-2): 66000 ± 7300 nM
CC(C)[C@H](NC(=O)c1ccc2ccccc2n1)C(=O)N[C@@H](CC(=O)O)C(=O)COc1c(F)cccc1F [Q-VD-OPh] |  |  |  | did not inhibit nsp5 activity | toxic side effects in rhesus macaques (rhesus macaques): no toxic side effects
COC(=O)CC(NC(=O)C(C)NC(=O)C(NC(=O)OCc1ccccc1)C(C)C)C(=O)CF (stereo not drawn) [Z-VAD-FMK, Z-VAD(OMe)-FMK] (Cbz-Val-Ala-Asp(OMe)-CH2F; configuration not given here) |  |  | -1.5 ± 0.07 | inhibited nsp5 | IC50 (nsp5 [1]): 160 ± 10 nM; EC50 (SARS-CoV-2; [4]): 138000 ± 19000 nM; concentrations at which inhibition of viral infection was displayed (SARS-CoV-2; Vero E6 cells): greater than 100 µM
O=C1O/C(=C/Br)CCC1c1cccc2ccccc12 (stereo not shown) [Bromoenol lactone] |  |  | -2.6 ± 0.15 | inhibited nsp5 | IC50 (nsp5 [1]): 3400 nM; Inhibition of thrombin: nH (thrombin; HTS buffer, thrombin FRET substrate, mean ± SEM): -2.8 ± 0.8; IC50 (thrombin; HTS buffer, thrombin FRET substrate, mean ± SEM, read-out: Inhibition of thrombin: IC50): 400 ± 600 nM; inhibition of thrombin activity (words) (thrombin): I nhibited thrombin; inhibition of thrombin activity (words) (thrombin; listed as bromoenol lactone): inhibited thrombin activity
Q-DEVD-OPh |  |  |  | only displayed inhibition at the highest concentration of drug tested | 
Br.CCCc1cc(-c2nc(-c3ccc(C)cc3)cs2)ccn1 [Fatostatin HBr] | showed some inhibition of nsp5 | 64900 | -0.3 ± 0.08 | Did not inhibit; also recorded: did not show inhibition at any of the drug concentrations | 
Cc1ccccc1N=Nc1ccc(NC(=O)c2ccnn2C)c(C)c1 [CH-223191] | Did not inhibit |  |  |  | 
CCNC(=O)[C@H]1O[C@@H](n2cnc3c(N)ncnc32)[C@H](O)[C@@H]1O [5'-N-Ethulcarbomaxidoadenosine] | Did not inhibit |  |  |  | 
